Assays:
p-ERK in WU-386 tumors = assay: pharmacodynamic p-ERK levels in WU-386 PDX tumors; type: in vivo, mice; details: WU-386 tumors collected 4-hour post end-point treatment (4 weeks)
[1] = tested on: trametinib resistant lines (ST8814Res and NF90.8Res); assay: cell number by trypan blue exclusion, trametinib resistant lines; type: cell-based; details: TNO155 0.3, 1, 3 μM, ribociclib 1, 3 μM, about 1 week
Description: (§1) Cell numbers were counted using trypan blue exclusion assay (Sigma-Aldrich) and normalized to the DMSO control.

NF1-MPNST PDX models = assay: tumor growth in NF1-MPNST patient-derived xenograft (PDX) models in NRG mice; type: in vivo; details: oral gavage, TNO155 7.5 mg/kg, ribociclib 75 mg/kg once daily, up to 42 days
Method: The PDX models of Example 1 were developed and characterized according to Dehrner, et al., JCI Insight 2021: 6(6):e146351 and Pollard, K., et al., Sci Data, 2020; 7:184). NRG (NOD-Rag1^null IL 2rg^null, NOD rag gamma) mice are used for all experiments.
Tumor response, survival and toxicity data were collected and analyzed. To form tumors, 1-2 million NF1-MPNST PDX-derived cells (JH-2-031, JH-2-079, JH-2-002, WU-225, WU-386, or WU-545)) in 50% Matrigel (BD Biosciences) were injected subcutaneously in 4- to 6-week-old female NRG mice. The tumors were measured and mice weighed twice weekly once tumors began to form. Drugs were given beginning when tumors reached 150-200 mm^3. Mice were treated with vehicle, single agent (A or B or C) or combination (A+B or B+C) for up to 42 days. Each group consisted of three to five mice. Tumor volume was calculated using the formula: V=L×W2 (π/6), where L=longest diameter and W=width.

[2] = tested on: ten native NF1-MPNST cell lines; assay: cell number by trypan blue exclusion, native NF1-MPNST cell lines; type: cell-based; details: TNO155 0.3, 1, 3 μM; ribociclib 1, 3 μM; about 1 week
Description: as §1

[3] = tested on: Rb-positive cell lines derived from diverse cancer types; assay: Rb phosphorylation and cell cycle progression in Rb-positive cell lines; type: cell-based; details: more than 40 Rb-positive cell lines

Compound | p-ERK levels in tumors (p-ERK in WU-386 tumors) | cell number response normalized to DMSO control [1] | anti-tumor activity / tumor growth inhibition in PDX models (NF1-MPNST PDX models) | cell number response normalized to DMSO control [2] | Retinoblastoma protein (Rb) phosphorylation and G1 to S phase cell cycle progression [3]
C[C@@H]1OCC2(CCN(c3cnc(Sc4ccnc(N)c4Cl)c(N)n3)CC2)[C@@H]1N [TNO155, (3S,4S)-8-(6-amino-5-((2-amino-3-chloropyridin-4-yl)thio)pyrazin-2-yl)-3-methyl-2-oxa-8-azaspiro[4.5]decan-4-amine] | decrease in p-ERK levels | limited activity | substantial anti-tumor activity as a single agent | partial sensitivity | 
CN(C)C(=O)c1cc2cnc(Nc3ccc(N4CCNCC4)cn3)nc2n1C1CCCC1 [Ribociclib, 7-cyclopentyl-N,N-dimethyl-2-((5-(piperazin-1-yl)pyridin-2-yl)amino)-7H-pyrrolo[2,3-d]pyrimidine-6-carboxamide] |  |  |  |  | inhibited Retinoblastoma protein (Rb) phosphorylation and interfered with G1 to S phase cell cycle progression
